Results as given in publication PMC10848004 (Saudi Pharmaceutical Journal : SPJ, 2024).

Key:
[1] = molecular target: CYP2D6 (Homo sapiens, UniProt P10635); assay: CYP inhibition in HLM, CYP2D6; type: in vitro ADME
[2] = tested on: glaucomatous rabbit eye model; assay: Antiglaucoma activity in vivo, IOP lowering, topical; settings: 1 % concentration, at 1 h post-administration

Sequence of CYP2D6 (P10635 whole entry): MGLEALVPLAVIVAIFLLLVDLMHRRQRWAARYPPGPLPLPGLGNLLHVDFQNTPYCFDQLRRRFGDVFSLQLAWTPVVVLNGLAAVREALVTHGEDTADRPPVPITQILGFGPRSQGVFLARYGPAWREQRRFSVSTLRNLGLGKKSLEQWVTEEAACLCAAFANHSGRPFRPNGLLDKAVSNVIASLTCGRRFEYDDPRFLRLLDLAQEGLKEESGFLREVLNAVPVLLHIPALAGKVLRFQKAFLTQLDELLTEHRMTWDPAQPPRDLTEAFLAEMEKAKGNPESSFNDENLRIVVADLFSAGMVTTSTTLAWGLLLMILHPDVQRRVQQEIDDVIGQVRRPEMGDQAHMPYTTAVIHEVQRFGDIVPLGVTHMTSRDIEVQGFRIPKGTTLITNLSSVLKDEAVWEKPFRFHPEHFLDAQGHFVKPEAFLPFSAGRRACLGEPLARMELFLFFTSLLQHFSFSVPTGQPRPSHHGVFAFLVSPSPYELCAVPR

`COc1ccc2c(c1)[C@]13CCCC[C@@H]1[C@H](C2)N(C)CC3` [Dextromethorphan] showed an IC50 [1] of 1340 nM.
`CCN[C@H]1CN(CCCOC)S(=O)(=O)c2sc(S(N)(=O)=O)cc21` [BRZ, brinzolamide] was tested, and the “maximal intraocular pressure lowering effect” value [2] was “around 5 mm Hg”.
